“Also recorded” adds a separate entry of the source.
Key:
Format in all cases: in vivo, human
[1] = Concentration of tacrolimus in the cord blood by chemiluminescence immunoassay (ECLIA); conditions: cord blood at delivery, maternal dose 5 mg/day oral
[2] = tested on: blood type incompatible pregnancy with negative maternal Rho (D) and positive fetal Rho (D); assay: Treatment of blood type incompatible pregnancy with tacrolimus: fetal and neonatal outcome
Source text: The patient is a person having blood type A. The patient suffering from a blood type incompatible pregnancy with negative maternal Rho (D) and positive fetal Rho (D) was subjected to the following treatments. That is, at the time of the first pregnancy, anti-D immunoglobulin was not administered during pregnancy, sensitization was effected before delivery, and the anti-D antibody titer at the time of delivery was 8-fold. In week 39, they gave birth by emergency cesarean section due to placental abruption. […] The anti-D antibody titer obtained immediately after the establishment of pregnancy was 4-fold; however, the titer reached 16-fold in week 24 and reached 32-fold in week 26 (FIG. 1, upper part). After that, migration of fetal antigens to the parent's body via the placenta was assumed to further increase, and preparation of plasmapheresis and fetal blood transfusion was initiated in preparation for a rapid increase in the anti-D antibody titer. […] Furthermore, the blood flow velocity in the middle cerebral artery and the estimated body weight of the fetus were measured by fetal ultrasonography.

[3] = tested on: infecundity considered to be caused by an abnormality in the immune system; assay: Tacrolimus treatment of infecundity: embryo transplantation outcome; conditions: tacrolimus 4 mg/day oral (2 mg morning, 2 mg evening); after five unsuccessful embryo transplantations
Method: Two years later, […] hoped to have a second child but suffered from infecundity and was treated for sterility by in vitro fertilization; however, since the treatment was unsuccessful after five embryo transplantations, a close examination of the immune system was conducted. At that time, a marked increase (24.9) in the Th1/Th2 (Th1 32.4, Th2 1.3) ratio was recognized, the illness was judged as infecundity considered to be caused by an abnormality in the immune system, and a tacrolimus treatment was selected.

anti-D antibody = assay: Anti-D antibody titer by indirect Coombs test in a patient treated with tacrolimus
Method: The measurement is carried out by the indirect Coombs test. The indirect Coombs test is a test in which an anti-immunoglobulin antibody is added to a mixture of the blood serum of a patient and the blood of a healthy person to examine whether a hemagglutination reaction occurs (irregular antibody present in the blood serum is detected) (for the Coombs test, see, for example, Nissan Women's Journal Vol. 59, No. 10, N-617-N-623). The patient is a person having blood type A. The patient suffering from a blood type incompatible pregnancy with negative maternal Rho (D) and positive fetal Rho (D) was subjected to the following treatments. That is, at the time of the first pregnancy, anti-D immunoglobulin was not administered during pregnancy, sensitization was effected before delivery, and the anti-D antibody titer at the time of delivery was 8-fold. In week 39, they gave birth by emergency cesarean section due to placental abruption. […] The anti-D antibody titer obtained immediately after the establishment of pregnancy was 4-fold; however, the titer reached 16-fold in week 24 and reached 32-fold in week 26 (FIG. 1, upper part). After that, migration of fetal antigens to the parent's body via the placenta was assumed to further increase, and preparation of plasmapheresis and fetal blood transfusion was initiated in preparation for a rapid increase in the anti-D antibody titer. […] Furthermore, the blood flow velocity in the middle cerebral artery and the estimated body weight of the fetus were measured by fetal ultrasonography.

Th1 cells = assay: Analysis of Th1 cells and Th2 cells by flow cytometry; conditions: maternal blood; week 28 of pregnancy; tacrolimus 4 mg/day oral
Method: For the purpose of evaluating the baseline value of the Th1/Th2 cell ratio, a total of 10 ml of venous blood was collected. Th1 cells and Th2 cells were determined by detecting the production of intracellular interferon (IFN)-γ and IL-4. Specific staining of lymphocytes was performed by incubating whole blood together with anti-CD4-PC5 or anti-CD8-PC5-conjugated monoclonal antibody (rAbs) (Beckman Coulter, Inc., Fullerton, Ca, USA). Red blood cells (RBCs) were removed by hemolysis (using FACS Lysing solution; Becton, Dickinson and Company, BD 134 Biosciences, Franklin Lake, N.J., USA), and lymphocytes were analyzed using flow cytometry (FACSCalibur; Becton, Dickinson and Company). Activated whole blood samples were surface-stained using anti-CD4-PC5-conjugate (Abs), and then RBC hemolysis and specific intracellular staining using FastImmune (trademark) IFN-γ-FITC/IL-4-PE (Becton, Dickinson and Company) were carried out in sequence according to the manufacturer's instructions for use. Th1 cells were defined as CD4^+ lymphocytes accompanied by intracellular IFN-γ but not by intracellular IL-4. Th2 cells were detected as CD4^+ lymphocytes accompanied by intracellular IL-4 but not by intracellular IFN-γ. The ratio of intracellular IFN-γ-positive Th cells with respect to intracellular IL-4-positive Th cells was expressed as the Th1/Th2 cell ratio.

[4] = fetal ultrasonography, tacrolimus 4 then 5 mg/day oral

For `C=CCC1/C=C(\C)CC(C)CC(OC)C2OC(O)(C(=O)C(=O)N3CCCCC3C(=O)OC(/C(C)=C/C3CCC(O)C(OC)C3)C(C)C(O)CC1=O)C(C)CC2OC` (centres unmarked) [tacrolimus, 17-Allyl-1,14-dihydroxy-12-[2-(4-hydroxy-3-methoxycyclohexyl)-1-methylvinyl]-23,25-dimethoxy-13,19,21,27-tetramethyl-11,28-dioxa-4-azatricyclo[22.3.1.04,9]octacos-18-ene-2,3,10,16-tetraone], the “concentration of tacrolimus in the cord blood” value [1] was “lower than or equal to the detection limit value”, the “malformations and physical functions of the child” value ([2]; child at birth, maternal tacrolimus during the entire pregnancy) was “no external malformations or visceral malformations and no problem with physical functions” and the “birth weight of the child” value ([2]; delivery on day 2 of week 37) was 2834 g. The “fetal anemia (increased blood flow velocity in the middle cerebral artery)” value [2, 4] was “without observing any fetal anemia; also recorded: fetal anemia did not develop during the entire course of pregnancy”, the “growth of the fetus (estimated body weight)” value [2, 4] was “The body weight smoothly increased; also recorded: growth of the child occurred without any problem” and the “maternal and fetal conditions / course of pregnancy” value ([2]; tacrolimus 4 then 5 mg/day oral) was “stable without complications”. The establishment of pregnancy [3] was “Pregnancy was established by a single embryo transplantation”, the “anti-D antibody titer in the cord blood” value (anti-D antibody; cord blood at delivery) was “double” and the “course of anti-D antibody titer / anti-D antibody production” value (anti-D antibody; maternal, after dose increase to 5 mg/day in week 28 of pregnancy) was “the titer did not further increase and was stabilized; also recorded: the expected increase in the anti-D antibody titer did not occur at all; also recorded: the production of anti-D antibody was also suppressed”. For the same compound, the anti-D antibody titer (anti-D antibody; maternal, after dose increase to 5 mg/day oral (week 28) until delivery) was 32 fold, the anti-D antibody titer (anti-D antibody; maternal, immediately after the establishment of pregnancy, tacrolimus 4 mg/day oral) was 4 fold and the anti-D antibody titer (anti-D antibody; maternal, week 24 of pregnancy, tacrolimus 4 mg/day oral) was 16 fold. The anti-D antibody titer (anti-D antibody; maternal, week 26 of pregnancy, tacrolimus 4 mg/day oral) was 32 fold and the Th1 cell population (Th1 cells) was “showed a tendency of increase again”.
